From patent publication US9029553B2, “2-anilino nicotinyl linked 2-amino benzothiazole conjugates and process for the preparation thereof” (Council of Scientific & Industrial Research, priority 2011, dated 2015)

How the values were obtained:
Format in all cases: cell-based
SiHa = assay: MTT inhibition of cell proliferation; details: Homo sapiens, 48 h
Excerpt: (§1) In order to determine the mode of action of cell death in cancer cells, first we explored the cytotoxic potential of different structural analogs of benzothiazoles on different human cancer cell lines. […] These compounds have limited or no cytotoxicity to cervical cancer SiHa, HeLa cells, breast cancer MCF-7 cells and colon cancer HCT-15 cells.

HL-60 = assay: MTT inhibition of cell proliferation; details: Homo sapiens, 48 h
Excerpt: as §1

Hela = assay: MTT inhibition of cell proliferation; details: Homo sapiens, 48 h
Excerpt: as §1

HCT-15 = assay: MTT inhibition of cell proliferation; details: Homo sapiens, 48 h
Excerpt: as §1

MCF-7 = assay: MTT inhibition of cell proliferation; details: Homo sapiens, MCF7, 48 h
Excerpt: as §1

NCI-H226 = assay: NCI SRB GI50 screen; details: Homo sapiens, Non-small lung, 48 hrs exposure, read-out: Growth Inhibition GI50 NCI-H226
Procedure: (§2) 2-Anilino nicotinyl linked 2-amino benzothiazole conjugates of formula 9-12 were tested against fifty nine human cancer cell lines derived from nine cancer types (leukemia, non-small cell lung cancer, colon cancer, CNS cancer, melanoma, ovarian cancer, renal cancer, prostate cancer and breast cancer) as per NCI protocol. For each compound, dose response curves for individual cell lines were measured at a minimum of five concentrations at 10 fold dilutions. A protocol of 48 hrs continuous drug exposure was used, and a sulforhodamine B (SRB) protein assay was used to estimate cell viability or growth.

Sw-620 = assay: NCI SRB GI50 screen; details: Homo sapiens, Colon, 48 hrs exposure, read-out: Growth Inhibition GI50 SW-620
Procedure: as §2

T-47D = assay: NCI SRB GI50 screen; details: Homo sapiens, T47D; Breast, 48 hrs exposure; read-out: Growth Inhibition GI50 T-47D
Procedure: as §2

SR = assay: NCI SRB GI50 screen; details: Homo sapiens, Leukemia, 48 hrs exposure, read-out: Growth Inhibition GI50 SR
Procedure: as §2

OVCAR-3 = assay: NCI SRB GI50 screen; details: Homo sapiens, Ovarian, 48 hrs exposure, read-out: Growth Inhibition GI50 OVCAR-3
Procedure: as §2

KM12 = assay: NCI SRB GI50 screen; details: Homo sapiens, Colon, 48 hrs exposure, read-out: Growth Inhibition GI50 KM12
Procedure: as §2

MCF7 = assay: NCI SRB GI50 screen; details: Homo sapiens, Breast, 48 hrs exposure, read-out: Growth Inhibition GI50 MCF7
Procedure: as §2

NCI-H322M = assay: NCI SRB GI50 screen; details: Homo sapiens, Non-small lung, 48 hrs exposure, read-out: Growth Inhibition GI50 NCI-H322M
Procedure: as §2

SNB-75 = assay: NCI SRB GI50 screen; details: Homo sapiens, CNS, 48 hrs exposure, read-out: Growth Inhibition GI50 SNB-75
Procedure: as §2

HL-60(TB) = assay: NCI SRB GI50 screen; details: Homo sapiens, Leukemia, 48 hrs exposure, read-out: Growth Inhibition GI50 HL-60(TB)
Procedure: as §2

SF-539 = assay: NCI SRB GI50 screen; details: Homo sapiens, CNS, 48 hrs exposure, read-out: Growth Inhibition GI50 SF-539
Procedure: as §2

COLO 205 = assay: NCI SRB GI50 screen; details: Homo sapiens, Colon, 48 hrs exposure, read-out: Growth Inhibition GI50 COLO 205
Procedure: as §2

UO-31 = assay: NCI SRB GI50 screen; details: Homo sapiens, Renal, 48 hrs exposure, read-out: Growth Inhibition GI50 UO-31
Procedure: as §2

NCI-H460 = assay: NCI SRB GI50 screen; details: Homo sapiens, Non-small lung, 48 hrs exposure, read-out: Growth Inhibition GI50 NCI-H460
Procedure: as §2

ACHN = assay: NCI SRB GI50 screen; details: Homo sapiens, Renal, 48 hrs exposure, read-out: Growth Inhibition GI50 ACHN
Procedure: as §2

HCC-2998 = assay: NCI SRB GI50 screen; details: Homo sapiens, Colon, 48 hrs exposure, read-out: Growth Inhibition GI50 HCC-2998
Procedure: as §2

HT29 = assay: NCI SRB GI50 screen; details: Homo sapiens, HT-29; Colon, 48 hrs exposure; read-out: Growth Inhibition GI50 HT29
Procedure: as §2

U251 = assay: NCI SRB GI50 screen; details: Homo sapiens, U-251; CNS, 48 hrs exposure; read-out: Growth Inhibition GI50 U251
Procedure: as §2

SK-MEL-5 = assay: NCI SRB GI50 screen; details: Homo sapiens, Melanoma, 48 hrs exposure, read-out: Growth Inhibition GI50 SK-MEL-5
Procedure: as §2

786-0 = assay: NCI SRB GI50 screen; details: Homo sapiens, Renal, 48 hrs exposure, read-out: Growth Inhibition GI50 786-0
Procedure: as §2

MDA-MB-435 = assay: NCI SRB GI50 screen; details: Homo sapiens, Melanoma, 48 hrs exposure, read-out: Growth Inhibition GI50 MDA-MB-435
Procedure: as §2

TK-10 = assay: NCI SRB GI50 screen; details: Homo sapiens, Renal, 48 hrs exposure, read-out: Growth Inhibition GI50 TK-10
Procedure: as §2

MALME-3M = assay: NCI SRB GI50 screen; details: Homo sapiens, read-out: Growth Inhibition GI50 MALME-3M, Melanoma, 48 hrs exposure
Procedure: as §2

SK-MEL-28 = assay: NCI SRB GI50 screen; details: Homo sapiens, Melanoma, 48 hrs exposure, read-out: Growth Inhibition GI50 SK-MEL-28
Procedure: as §2

DU-145 = assay: NCI SRB GI50 screen; details: Homo sapiens, Prostate, 48 hrs exposure, read-out: Growth Inhibition GI50 DU-145
Procedure: as §2

K-562 = assay: NCI SRB GI50 screen; details: Homo sapiens, K562; Leukemia, 48 hrs exposure; read-out: Growth Inhibition GI50 K-562
Procedure: as §2

A549/ATCC = assay: NCI SRB GI50 screen; details: Homo sapiens, Non-small lung, 48 hrs exposure, read-out: Growth Inhibition GI50 A549/ATCC
Procedure: as §2

Structure (SMILES)	GI50 (NCI-H226) [µM]	GI50 (T-47D) [µM]	GI50 (SR) [µM]	GI50 (OVCAR-3) [µM]	GI50 (KM12) [µM]	GI50 (MCF7) [µM]	GI50 (NCI-H322M) [µM]	GI50 (SNB-75) [µM]	GI50 (HL-60(TB)) [µM]	GI50 (SF-539) [µM]	GI50 (COLO 205) [µM]	GI50 (UO-31) [µM]	GI50 (NCI-H460) [µM]	GI50 (ACHN) [µM]	GI50 (HCC-2998) [µM]	GI50 (HT29) [µM]	GI50 (U251) [µM]	GI50 (SK-MEL-5) [µM]	GI50 (786-0) [µM]	GI50 (MDA-MB-435) [µM]	further results
O=C(Nc1nc2ccc([N+](=O)[O-])cc2s1)c1cccnc1Nc1cc(F)c(F)c(F)c1 [Compound 8, N3-(6-nitro-1,3-benzothiazol-2-yl)-2-[(3,4,5-trifluorophenyl)amino]-3-pyridine carboxamide]																					IC50 (SiHa): 36 µM; IC50 (HL-60): 0.08 µM; IC50 (Hela): > 100 µM; IC50 (HCT-15): > 100 µM; IC50 (MCF-7): > 100 µM
O=C(Nc1nc2ccc(F)cc2s1)c1cccnc1Nc1ccc(Cl)cc1 [Compound 9, N3-(6-fluoro-1,3-benzothiazol-2-yl)-2-(4-chloroanilino)nicotinamide]	2.32	0.73	2.28	2.17	2.61	2.38	3.25	2.95	1.74	2.7	1.68	1.94	1.97	3.08	2.75	2.86	3.03	1.11	2.78	2.99	GI50 (Sw-620): 1.02 µM; GI50 (TK-10): 3 µM; GI50 (MALME-3M): 1.94 µM; GI50 (SK-MEL-28): 3.51 µM; GI50 (DU-145): 3.67 µM; GI50 (K-562): 0.726 µM; GI50 (A549/ATCC): 2.32 µM
O=C(Nc1nc2ccc(F)cc2s1)c1cccnc1Nc1ccc(Cl)cc1Cl [Compound 10, N3-(6-fluoro-1,3-benzothiazol-2-yl)-2-(2,4-dichloroanilino)nicotinamide]	2.7	1.93	3.03	2.44	2.9	3.07	3.24	2.55	1.83	4.02	1.9	1.1	2.56	3.72	3.54	2.98	2.9	1.71	3.77	3.03	GI50 (Sw-620): 3.4 µM; GI50 (TK-10): 3.05 µM; GI50 (MALME-3M): 2.38 µM; GI50 (SK-MEL-28): 4.09 µM; GI50 (DU-145): 3.53 µM; GI50 (K-562): 1.78 µM; GI50 (A549/ATCC): 2.96 µM
COc1cc(Nc2ncccc2C(=O)Nc2nc3ccc(F)cc3s2)cc(OC)c1OC [Compound 11, N3-(6-fluoro-1,3-benzothiazol-2-yl)-2-(3,4,5-trimethoxyanilino)nicotinamide]	2.95	2.3	2.97	2.77	3.79	3.23	3.71	4.48	1.86	3.84	3.04	3.37	3.3	4.82	2.94	5.15	3.01	1.63	5.51	2.87	GI50 (MALME-3M): 3.27 µM; GI50 (SK-MEL-28): 4.33 µM; GI50 (DU-145): 5.5 µM; GI50 (K-562): 1.68 µM; GI50 (A549/ATCC): 3.11 µM
COc1ccc2nc(NC(=O)c3cccnc3Nc3cc(OC)c(OC)c(OC)c3)sc2c1 [Compound 12, N-3-(6-methoxy-1,3-benzothiazol-2-yl)-2-(3,4,5-trimethoxyanilino) nicotinamide]	10.7	5.06	2.31	8.92	4.51	0.51	17.3	2.89	32.3	2.81	17.4	9.3	7.42	6.47	17	17.7	7.1	11.3	5.6	1.85	GI50 (Sw-620): 11.8 µM; GI50 (TK-10): 4.31 µM; GI50 (MALME-3M): 10.1 µM; GI50 (SK-MEL-28): 7.88 µM; GI50 (DU-145): 14.6 µM; GI50 (K-562): 8.91 µM; GI50 (A549/ATCC): 7.38 µM
